Source: BindingDB's records for PubMed 37487305 (Zhengzhou University)

Target: Histone deacetylase 1 (Homo sapiens, UniProt Q13547)
Assay: Inhibition of HDAC1 (unknown origin) by fluorescence based microplate reader assay

Histone deacetylase 1, sequence (Q13547 whole entry): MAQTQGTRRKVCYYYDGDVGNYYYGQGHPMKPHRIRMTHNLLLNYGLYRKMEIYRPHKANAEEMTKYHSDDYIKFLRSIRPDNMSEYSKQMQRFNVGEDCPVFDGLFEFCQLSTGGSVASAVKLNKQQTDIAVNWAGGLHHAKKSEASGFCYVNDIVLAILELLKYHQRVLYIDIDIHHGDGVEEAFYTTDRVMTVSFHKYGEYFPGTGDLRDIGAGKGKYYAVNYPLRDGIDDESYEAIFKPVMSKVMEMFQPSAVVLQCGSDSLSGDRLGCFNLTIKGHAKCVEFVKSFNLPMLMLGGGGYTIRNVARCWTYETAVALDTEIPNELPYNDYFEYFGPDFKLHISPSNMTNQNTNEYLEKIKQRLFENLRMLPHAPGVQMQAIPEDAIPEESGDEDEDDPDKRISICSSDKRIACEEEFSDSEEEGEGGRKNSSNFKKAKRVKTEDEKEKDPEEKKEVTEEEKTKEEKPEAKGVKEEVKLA

Compound: CN1c2ccccc2C(=O)N2[C@H](C(=O)Nc3ccc(C(=O)Nc4ccccc4N)cc3)Cc3c([nH]c4ccccc34)[C@@H]12
- IC50: 160 nM
